Key:
[1] = system: Calpain activity in SH-SY5Y cells; experiment: SH-SY5Y + AMC fluorescence assay (Suc-LLVY-AMC substrate); assay type: cell-based; conditions: read-out: SH-SY5Y + AMC IC50
Human Calpain 9/NS1 = target: T1, Human Calpain 9/NS1 (Homo sapiens, UniProt O14815); experiment: Calpain inhibition continuous fluorescence (FRET) assay, Human Calpain 9/NS1; assay type: biochemical; conditions: read-out: Human Calpain 9/NS1 IC50
T1 sequence (O14815 1-690): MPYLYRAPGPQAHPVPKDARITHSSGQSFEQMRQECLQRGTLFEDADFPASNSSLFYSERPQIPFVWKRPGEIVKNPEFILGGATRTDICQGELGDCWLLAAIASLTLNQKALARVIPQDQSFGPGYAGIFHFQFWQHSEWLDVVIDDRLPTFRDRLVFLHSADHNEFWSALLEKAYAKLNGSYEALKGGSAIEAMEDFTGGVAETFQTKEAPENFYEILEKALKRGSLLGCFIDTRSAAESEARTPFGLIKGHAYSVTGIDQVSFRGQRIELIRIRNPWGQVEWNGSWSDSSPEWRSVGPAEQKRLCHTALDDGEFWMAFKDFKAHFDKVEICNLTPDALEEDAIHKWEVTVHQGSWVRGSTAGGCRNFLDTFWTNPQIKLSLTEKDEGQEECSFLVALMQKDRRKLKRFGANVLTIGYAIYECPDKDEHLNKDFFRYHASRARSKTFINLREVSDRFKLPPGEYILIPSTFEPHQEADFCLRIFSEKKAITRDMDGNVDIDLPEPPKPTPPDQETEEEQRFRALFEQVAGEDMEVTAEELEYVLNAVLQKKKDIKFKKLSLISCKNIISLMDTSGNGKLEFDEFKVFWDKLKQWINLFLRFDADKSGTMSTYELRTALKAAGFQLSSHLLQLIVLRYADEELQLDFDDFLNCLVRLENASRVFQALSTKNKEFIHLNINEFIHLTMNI
T1 sequence (P04632 1-268 partner): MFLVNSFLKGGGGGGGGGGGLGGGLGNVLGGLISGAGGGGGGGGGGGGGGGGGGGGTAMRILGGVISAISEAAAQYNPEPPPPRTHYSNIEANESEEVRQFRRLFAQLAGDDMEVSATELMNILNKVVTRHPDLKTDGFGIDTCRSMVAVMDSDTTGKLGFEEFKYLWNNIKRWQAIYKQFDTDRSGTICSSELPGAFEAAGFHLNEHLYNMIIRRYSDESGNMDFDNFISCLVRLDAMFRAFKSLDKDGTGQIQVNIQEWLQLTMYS
Procedure, shortened: (§1)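 Inhibitors were preincubated with calpain in 50 mM Tris pH 7.5, 100 mM NaCl, 1 mM DTT at 25C. Reactions were started with 5-FAM/QXL 520 FRET peptide substrate plus CaCl2 and read at 490/520 nm for 10 min. IC50s came from 4-parameter fits of slope rates (1-5 min).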

Human Calpain 1/NS1 = target: T2, Human Calpain 1/NS1 (Homo sapiens, UniProt P07384); experiment: Calpain inhibition continuous fluorescence (FRET) assay, Human Calpain 1/NS1; assay type: biochemical; conditions: read-out: Human Calpain 1/NS1 IC50
T2 sequence (P07384 1-714): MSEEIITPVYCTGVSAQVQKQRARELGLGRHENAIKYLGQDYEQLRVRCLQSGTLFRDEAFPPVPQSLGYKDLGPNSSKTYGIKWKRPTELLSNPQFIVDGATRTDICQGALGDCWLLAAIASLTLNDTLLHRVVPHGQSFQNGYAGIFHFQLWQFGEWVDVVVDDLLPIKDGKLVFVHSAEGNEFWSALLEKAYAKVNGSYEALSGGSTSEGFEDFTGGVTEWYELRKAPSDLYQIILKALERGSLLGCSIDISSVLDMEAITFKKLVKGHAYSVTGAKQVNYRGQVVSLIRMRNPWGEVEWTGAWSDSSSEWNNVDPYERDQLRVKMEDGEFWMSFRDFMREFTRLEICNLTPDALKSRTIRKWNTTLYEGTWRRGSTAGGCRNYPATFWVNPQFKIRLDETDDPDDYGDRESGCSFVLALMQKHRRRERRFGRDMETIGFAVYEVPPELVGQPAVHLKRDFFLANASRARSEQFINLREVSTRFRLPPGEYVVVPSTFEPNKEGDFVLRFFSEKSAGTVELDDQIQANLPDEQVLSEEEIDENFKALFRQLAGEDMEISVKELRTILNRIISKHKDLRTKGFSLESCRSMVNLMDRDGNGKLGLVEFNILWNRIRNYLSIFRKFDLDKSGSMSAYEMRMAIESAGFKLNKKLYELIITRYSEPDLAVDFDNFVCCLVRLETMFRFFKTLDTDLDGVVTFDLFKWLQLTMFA
T2 sequence (P04632 1-268 partner): T1 sequence (P04632 1-268 partner)
Procedure, shortened: as §1

Human Calpain 2/NS1 = target: T3, Human Calpain 2/NS1 (Homo sapiens, UniProt P17655); experiment: Calpain inhibition continuous fluorescence (FRET) assay, Human Calpain 2/NS1; assay type: biochemical; conditions: read-out: Human Calpain 2/NS1 IC50
T3 sequence (P17655 1-700): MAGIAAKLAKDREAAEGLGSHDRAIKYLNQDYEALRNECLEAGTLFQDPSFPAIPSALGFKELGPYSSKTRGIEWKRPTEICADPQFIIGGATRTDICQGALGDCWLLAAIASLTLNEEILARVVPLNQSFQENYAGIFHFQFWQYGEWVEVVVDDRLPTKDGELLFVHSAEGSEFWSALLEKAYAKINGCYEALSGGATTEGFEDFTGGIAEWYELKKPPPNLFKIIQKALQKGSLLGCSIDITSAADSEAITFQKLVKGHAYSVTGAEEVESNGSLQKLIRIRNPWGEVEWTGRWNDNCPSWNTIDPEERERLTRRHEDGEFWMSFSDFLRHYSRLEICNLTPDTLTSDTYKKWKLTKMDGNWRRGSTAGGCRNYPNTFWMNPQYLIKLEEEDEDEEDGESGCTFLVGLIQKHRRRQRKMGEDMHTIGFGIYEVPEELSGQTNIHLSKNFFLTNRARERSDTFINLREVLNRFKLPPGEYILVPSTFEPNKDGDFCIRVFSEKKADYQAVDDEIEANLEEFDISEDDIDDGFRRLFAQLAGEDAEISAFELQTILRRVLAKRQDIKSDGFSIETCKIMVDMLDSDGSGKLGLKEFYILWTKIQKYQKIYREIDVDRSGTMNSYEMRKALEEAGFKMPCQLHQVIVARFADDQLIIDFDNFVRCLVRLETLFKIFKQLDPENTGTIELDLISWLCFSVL
T3 sequence (P04632 1-268 partner): T1 sequence (P04632 1-268 partner)
Procedure, shortened: as §1

[2] = system: Calpain activity in SH-SY5Y cells (SBDP-150); experiment: SH-SY5Y Spectrin western blot assay (SBDP-150 breakdown product, A23187-induced); assay type: cell-based; conditions: Homo sapiens; SH-SY5Y cells, A23187-induced SBDP-150, western blot; read-out: SH-SY5Y Spectrin IC50

Compound	IC50 [1] [µM]	IC50 (Human Calpain 9/NS1) [µM]	IC50 (Human Calpain 1/NS1) [µM]	IC50 (Human Calpain 2/NS1) [µM]	IC50 [2] [µM]
Cn1cc(C(=O)NC(Cc2ccccc2)C(=O)C(N)=O)c(-c2cccc(C(F)F)c2)n1 (stereo not drawn) [Compound 508, N-(4-amino-3,4-dioxo-1-phenylbutan-2-yl)-3-(3-(difluoromethyl)phenyl)-1-methyl-1H-pyrazole-4-carboxamide]	< 10	< 3	< 3	< 3	< 10
Cn1cc(C(=O)NC(Cc2ccccc2)C(=O)C(N)=O)c(-c2cccc3c2OC(F)(F)O3)n1 (stereo not drawn) [Compound 510, N-(4-amino-3,4-dioxo-1-phenylbutan-2-yl)-3-(2,2-difluorobenzo[d][1,3]dioxol-4-yl)-1-methyl-1H-pyrazole-4-carboxamide]	10 to 25	< 3	< 3	< 3	10 to 25
Cn1cc(C(=O)NC(Cc2ccccc2)C(=O)C(N)=O)c(-c2cccc(F)c2C(F)(F)F)n1 (stereo not drawn) [Compound 512, N-(4-amino-3,4-dioxo-1-phenylbutan-2-yl)-3-(3-fluoro-2-(trifluoromethyl)phenyl)-1-methyl-1H-pyrazole-4-carboxamide]	< 10	3 to 10	3 to 10	3 to 10	> 25
Cn1cc(C(=O)NC(Cc2ccccc2)C(=O)C(N)=O)c(-c2ccccc2C(F)(F)F)n1 (stereo not drawn) [Compound 513, N-(4-amino-3,4-dioxo-1-phenylbutan-2-yl)-1-methyl-3-(2-(trifluoromethyl)phenyl)-1H-pyrazole-4-carboxamide]	< 10	3 to 10	3 to 10	3 to 10	> 25
Cn1cc(C(=O)NC(Cc2ccccc2)C(=O)C(N)=O)c(-c2cccc3c2OCO3)n1 (stereo not drawn) [Compound 514, N-(4-amino-3,4-dioxo-1-phenylbutan-2-yl)-3-(benzo[d][1,3]dioxol-4-yl)-1-methyl-1H-pyrazole-4-carboxamide]	< 10	< 3	< 3	< 3	> 25
Cc1cccc(-c2nn(C)cc2C(=O)NC(Cc2ccccc2)C(=O)C(N)=O)c1F (stereo not drawn) [Compound 517, N-(4-amino-3,4-dioxo-1-phenylbutan-2-yl)-3-(2-fluoro-3-methylphenyl)-1-methyl-1H-pyrazole-4-carboxamide]	10 to 25	< 3	< 3	< 3	10 to 25
Cn1cc(C(=O)NC(Cc2ccccc2)C(=O)C(N)=O)c(-c2cc(F)ccc2F)n1 (stereo not drawn) [Compound 518, N-(4-amino-3,4-dioxo-1-phenylbutan-2-yl)-3-(2,5-difluorophenyl)-1-methyl-1H-pyrazole-4-carboxamide]	< 10	< 3	< 3	< 3	10 to 25
Cn1cc(C(=O)NC(C=O)Cc2ccccc2)c(-c2ccccc2F)n1 (stereo not drawn) [Compound 520, 3-(2-Fluorophenyl)-1-methyl-N-(1-oxo-3-phenylpropan-2-yl)-1H-pyrazole-4-carboxamide]	10 to 25	< 3	< 3	< 3	> 25
Cc1ccncc1-c1nn(C(F)F)cc1C(=O)NC(Cc1ccccc1)C(=O)C(N)=O (stereo not drawn) [Compound 522, N-(4-amino-3,4-dioxo-1-phenylbutan-2-yl)-1-(difluoromethyl)-3-(4-methylpyridin-3-yl)-1H-pyrazole-4-carboxamide]	< 10	< 3	< 3	< 3	> 25
Cc1ccc(C)c(-c2nn(C(F)F)cc2C(=O)NC(Cc2ccccc2)C(=O)C(N)=O)c1 (stereo not drawn) [Compound 524, N-(4-amino-3,4-dioxo-1-phenylbutan-2-yl)-1-(difluoromethyl)-3-(2,5-dimethylphenyl)-1H-pyrazole-4-carboxamide]	< 10	< 3	< 3	< 3	10 to 25

Continued, values first:

IC50 [1] [µM]	IC50 (Human Calpain 9/NS1) [µM]	IC50 (Human Calpain 1/NS1) [µM]	IC50 (Human Calpain 2/NS1) [µM]	IC50 [2] [µM]	Compound
< 10	< 3	< 3	< 3	10 to 25	Cn1cc(C(=O)NC(Cc2ccccc2)C(=O)C(N)=O)c(-c2ccoc2)n1 (stereo not drawn) [Compound 502, N-(4-amino-3,4-dioxo-1-phenylbutan-2-yl)-3-(furan-3-yl)-1-methyl-1H-pyrazole-4-carboxamide]
> 25	< 3	< 3	< 3	> 25	Cc1csc(-c2nn(C)cc2C(=O)NC(Cc2ccccc2)C(=O)C(N)=O)c1 (stereo not drawn) [Compound 504, N-(4-amino-3,4-dioxo-1-phenylbutan-2-yl)-1-methyl-3-(4-methylthiophen-2-yl)-1H-pyrazole-4-carboxamide]
< 10	< 3	< 3	< 3	10 to 25	COc1ccc(F)c(-c2nn(C)cc2C(=O)NC(Cc2ccccc2)C(=O)C(N)=O)c1 (stereo not drawn) [Compound 507, N-(4-amino-3,4-dioxo-1-phenylbutan-2-yl)-3-(2-fluoro-5-methoxyphenyl)-1-methyl-1H-pyrazole-4-carboxamide]
10 to 25	< 3	< 3	< 3	10 to 25	COc1cccc(-c2nn(C)cc2C(=O)NC(Cc2ccccc2)C(=O)C(N)=O)c1F (stereo not drawn) [Compound 509, N-(4-amino-3,4-dioxo-1-phenylbutan-2-yl)-3-(2-fluoro-3-methoxyphenyl)-1-methyl-1H-pyrazole-4-carboxamide]
> 25	< 3	< 3	< 3	> 25	COc1cncc(-c2nn(C)cc2C(=O)NC(Cc2ccccc2)C(=O)C(N)=O)c1 (stereo not drawn) [Compound 515, N-(4-amino-3,4-dioxo-1-phenylbutan-2-yl)-3-(5-methoxypyridin-3-yl)-1-methyl-1H-pyrazole-4-carboxamide]
